pIC50: −log10 of the molar value.

One experiment deals with T1, Leukotriene C4 synthase (Cavia porcellus, UniProt A6XA80).
T1 sequence (A6XA80 whole entry): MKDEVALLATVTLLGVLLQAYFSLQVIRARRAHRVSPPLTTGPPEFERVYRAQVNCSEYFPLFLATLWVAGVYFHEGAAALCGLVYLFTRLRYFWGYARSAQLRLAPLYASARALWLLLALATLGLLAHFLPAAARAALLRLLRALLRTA
Kind of experiment: biochemical. The experiment is classed as tissue-based, Lung.

The target in experiment [1] is T2, Amine oxidase [flavin-containing] A (Homo sapiens, UniProt P21397).
T2 sequence (P21397 whole entry): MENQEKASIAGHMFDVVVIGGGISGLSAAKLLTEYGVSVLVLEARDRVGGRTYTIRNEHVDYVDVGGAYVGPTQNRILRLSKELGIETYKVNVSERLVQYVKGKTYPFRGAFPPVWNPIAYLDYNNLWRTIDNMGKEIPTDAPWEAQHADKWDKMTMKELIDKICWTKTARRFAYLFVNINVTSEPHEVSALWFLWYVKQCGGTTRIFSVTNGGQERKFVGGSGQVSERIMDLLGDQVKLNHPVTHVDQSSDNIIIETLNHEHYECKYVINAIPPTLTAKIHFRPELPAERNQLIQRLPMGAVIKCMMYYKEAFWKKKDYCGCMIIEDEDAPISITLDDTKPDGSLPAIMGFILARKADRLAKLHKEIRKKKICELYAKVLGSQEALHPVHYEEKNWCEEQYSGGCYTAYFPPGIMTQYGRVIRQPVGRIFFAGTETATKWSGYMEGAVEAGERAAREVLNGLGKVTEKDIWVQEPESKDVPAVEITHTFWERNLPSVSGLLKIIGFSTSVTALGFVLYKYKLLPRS
The experiment is described as follows: DRUGMATRIX: Monoamine Oxidase MAO-A enzyme inhibition (substrate: Kynuramine). The arrangement: species or system BTI-TN-5B1-4. The settings on record: bti-tn-5b1-4; Not Active = under 50% inhibition at 10 µM.

In a further experiment the target is Melanocortin receptor 4 (Homo sapiens, UniProt P32245). The experiment is classed as cell membranes, Membrane. The settings on record: hek293. Also: in other assays of this panel Not Active means under 50% inhibition at 10 µM.
Experiment [2] has as its target cGMP-specific 3',5'-cyclic phosphodiesterase (Homo sapiens, UniProt O76074). Kind of experiment: DRUGMATRIX: Phosphodiesterase PDE5 enzyme inhibition (substrate: [3H]cGMP + cGMP). The class given is tissue-based, Platelet. The settings on record: Not Active = under 50% inhibition at 10 µM.
Experiment [3] has as its target T3, Muscarinic acetylcholine receptor M4 (Homo sapiens, UniProt P08173). Also: in other assays of this panel Not Active means under 50% inhibition at 10 µM.
T3 sequence (P08173 whole entry): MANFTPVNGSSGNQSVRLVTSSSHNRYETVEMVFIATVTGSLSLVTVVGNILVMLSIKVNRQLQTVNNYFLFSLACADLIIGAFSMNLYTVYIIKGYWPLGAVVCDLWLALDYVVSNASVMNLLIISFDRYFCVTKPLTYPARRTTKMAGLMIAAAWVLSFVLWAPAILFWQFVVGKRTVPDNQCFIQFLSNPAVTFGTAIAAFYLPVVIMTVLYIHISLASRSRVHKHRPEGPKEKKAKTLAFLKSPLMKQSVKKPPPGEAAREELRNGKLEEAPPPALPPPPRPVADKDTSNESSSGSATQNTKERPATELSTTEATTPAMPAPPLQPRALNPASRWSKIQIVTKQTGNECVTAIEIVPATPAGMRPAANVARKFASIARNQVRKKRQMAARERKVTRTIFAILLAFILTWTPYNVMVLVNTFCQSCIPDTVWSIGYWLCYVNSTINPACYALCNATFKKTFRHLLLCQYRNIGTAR
The class given is cell membranes, CHO-K1, Membrane. The settings on record: cho-k1.

Another experiment addresses Melanocortin receptor 3 (Homo sapiens, UniProt P41968). The class given is cell membranes, HEK293, Membrane. The settings on record: hek293.

Melanocortin receptor 4, sequence (P32245 whole entry): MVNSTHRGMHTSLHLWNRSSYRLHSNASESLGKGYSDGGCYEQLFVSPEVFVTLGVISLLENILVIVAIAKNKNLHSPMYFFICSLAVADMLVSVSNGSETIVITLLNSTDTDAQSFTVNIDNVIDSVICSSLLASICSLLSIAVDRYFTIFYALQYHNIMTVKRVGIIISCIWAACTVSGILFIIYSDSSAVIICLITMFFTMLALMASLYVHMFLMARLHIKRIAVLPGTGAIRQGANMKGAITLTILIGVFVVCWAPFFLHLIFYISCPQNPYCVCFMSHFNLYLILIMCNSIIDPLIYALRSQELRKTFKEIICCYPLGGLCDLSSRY
Melanocortin receptor 3, sequence (P41968 whole entry): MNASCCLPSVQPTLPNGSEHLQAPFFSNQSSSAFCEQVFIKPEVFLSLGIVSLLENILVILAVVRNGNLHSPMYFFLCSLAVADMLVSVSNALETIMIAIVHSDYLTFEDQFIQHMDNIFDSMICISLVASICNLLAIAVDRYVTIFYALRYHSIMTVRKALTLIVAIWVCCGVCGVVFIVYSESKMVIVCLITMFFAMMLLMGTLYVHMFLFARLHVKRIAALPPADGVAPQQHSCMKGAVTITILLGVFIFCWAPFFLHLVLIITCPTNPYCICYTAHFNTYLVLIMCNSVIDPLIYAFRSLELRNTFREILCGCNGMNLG

On to `O=C(OC[C@H]1O[C@@H](OC(=O)c2cc(O)c(O)c(OC(=O)c3cc(O)c(O)c(O)c3)c2)[C@H](OC(=O)c2cc(O)c(O)c(OC(=O)c3cc(O)c(O)c(O)c3)c2)[C@@H](OC(=O)c2cc(O)c(O)c(OC(=O)c3cc(O)c(O)c(O)c3)c2)[C@@H]1OC(=O)c1cc(O)c(O)c(OC(=O)c2cc(O)c(O)c(O)c2)c1)c1cc(O)c(O)c(OC(=O)c2cc(O)c(O)c(O)c2)c1` [TANNIC ACID], for which the pIC50 at Leukotriene C4 synthase (read-out: IC50) is 5.57; in experiment [2] (read-out: IC50), 5.33. Further, the IC50 result (in experiment [1]; at Melanocortin receptor 4; in experiment [3]; against Melanocortin receptor 3) was “Not Active” each time.

As to LEAD(IV) ACETATE, the IC50 entry (against Leukotriene C4 synthase; in experiment [1]; on Melanocortin receptor 4; in experiment [2] (platelet); in experiment [3]; at Melanocortin receptor 3) was “Not Active” throughout. For the same compound, the Ki result (on Leukotriene C4 synthase; in experiment [1]; on Melanocortin receptor 4; in experiment [2] (platelet); in experiment [3]; at Melanocortin receptor 3) was “Not Active” throughout.

Consider `CC#C[C@]1(O)CC[C@H]2[C@@H]3CCC4=CC(=O)CCC4=C3[C@@H](c3ccc(N(C)C)cc3)C[C@@]21C` [MIFEPRISTONE], for which the IC50 entry (against Leukotriene C4 synthase; in experiment [1]; on Melanocortin receptor 4; in experiment [2] (platelet); in experiment [3]; against Melanocortin receptor 3) was “Not Active” in each case.

Turning to `Cc1[nH]c(=O)c(C#N)cc1-c1ccncc1` [MILRINONE], the IC50 entry (on Leukotriene C4 synthase; in experiment [1]; on Melanocortin receptor 4; in experiment [2] (platelet); in experiment [3]; on Melanocortin receptor 3) was “Not Active” in each case.

As for `CCN(CC)N=O` [N-NITROSODIETHYLAMINE], the IC50 result (against Leukotriene C4 synthase; in experiment [1]; against Melanocortin receptor 4; in experiment [2] (platelet); in experiment [3]; against Melanocortin receptor 3) was “Not Active” in each case.

`Cc1ccc(S(=O)(=O)NC(=O)NN2CCCCCC2)cc1` [TOLAZAMIDE]: the IC50 entry (against Leukotriene C4 synthase; in experiment [1]; at Melanocortin receptor 4; in experiment [2] (platelet); in experiment [3]; against Melanocortin receptor 3) was “Not Active” throughout.

For the compound `CC(O)C(=O)O` (stereo not drawn) [LACTIC ACID], the IC50 entry (against Leukotriene C4 synthase; in experiment [1]; against Melanocortin receptor 4; in experiment [2] (platelet); in experiment [3]; against Melanocortin receptor 3) was “Not Active” each time.

Take `CS(=O)(=O)c1ccc(C2=C(c3ccccc3)C(=O)OC2)cc1` [ROFECOXIB]: the IC50 entry (against Leukotriene C4 synthase; in experiment [1]; against Melanocortin receptor 4; in experiment [2] (platelet); in experiment [3]; against Melanocortin receptor 3) was “Not Active” throughout.

As to `CCOC(=O)C1=C(C)NC(C)=C(C(=O)OCC)C1c1ccccc1/C=C/C(=O)OC(C)(C)C` [LACIDIPINE], the IC50 entry (against Leukotriene C4 synthase; in experiment [1]; against Melanocortin receptor 4; in experiment [2] (platelet); in experiment [3]; against Melanocortin receptor 3) was “Not Active” throughout.

Regarding `CC(N)C12CC3CC(CC(C3)C1)C2` (stereo not drawn) [RIMANTADINE], the IC50 entry (on Leukotriene C4 synthase; in experiment [1]; at Melanocortin receptor 4; in experiment [2] (platelet); in experiment [3]; at Melanocortin receptor 3) was “Not Active” in each case.

Regarding `CC(Cl)(Cl)Cl` [TRICHLOROETHANE], the IC50 entry (on Leukotriene C4 synthase; in experiment [1]; at Melanocortin receptor 4; in experiment [2] (platelet); in experiment [3]; on Melanocortin receptor 3) was “Not Active” each time.

For the compound `O=C(O)c1cc(/N=N/c2ccc(S(=O)(=O)Nc3ccccn3)cc2)ccc1O` [SULFASALAZINE], the IC50 entry (at Leukotriene C4 synthase; in experiment [1]; against Melanocortin receptor 4; in experiment [2] (platelet); in experiment [3]; against Melanocortin receptor 3) was “Not Active” throughout.

As to `Cc1cccc(C)c1NC(=O)C(C)N` (stereo not drawn) [TOCAINIDE], the IC50 entry (on Leukotriene C4 synthase; in experiment [1]; at Melanocortin receptor 4; in experiment [2] (platelet); in experiment [3]; against Melanocortin receptor 3) was “Not Active” in each case.

`CO[C@@]12[C@H](COC(N)=O)C3=C(C(=O)C(C)=C(N)C3=O)N1C[C@@H]1N[C@@H]12` [MITOMYCIN]: the IC50 result (on Leukotriene C4 synthase; in experiment [1]; against Melanocortin receptor 4; in experiment [2] (platelet); in experiment [3]; against Melanocortin receptor 3) was “Not Active” each time.

With `Nc1nc(N)c2nc(-c3ccccc3)c(N)nc2n1`, the IC50 entry (against Leukotriene C4 synthase; in experiment [1]; against Melanocortin receptor 4; in experiment [2] (platelet); in experiment [3]; at Melanocortin receptor 3) was “Not Active” in each case.

`CC1=C(/C=C/C(C)=C/C=C/C(C)=C/C(=O)O)C(C)(C)CCC1` [TRETINOIN]: the IC50 entry (against Leukotriene C4 synthase; in experiment [1]; against Melanocortin receptor 4; in experiment [2] (platelet); in experiment [3]; against Melanocortin receptor 3) was “Not Active” throughout.

As for `CC[C@@]1(O)C(=O)OCc2c1cc1n(c2=O)Cc2cc3c(CN(C)C)c(O)ccc3nc2-1` [TOPOTECAN], the IC50 result (against Leukotriene C4 synthase; in experiment [1]; against Melanocortin receptor 4; in experiment [2] (platelet); in experiment [3]; on Melanocortin receptor 3) was “Not Active” in each case.

Regarding `Cc1ccc(Cl)c(Nc2ccccc2C(=O)O)c1Cl` [MECLOFENAMIC ACID], the IC50 entry (on Leukotriene C4 synthase; in experiment [1]; on Melanocortin receptor 4; in experiment [2] (platelet); in experiment [3]; on Melanocortin receptor 3) was “Not Active” in each case.

In the case of `CCOc1cc(N)c(Cl)cc1C(=O)NCC1CN(Cc2ccc(F)cc2)CCO1` (stereo not drawn) [MOSAPRIDE], the IC50 entry (against Leukotriene C4 synthase; in experiment [1]; against Melanocortin receptor 4; in experiment [2] (platelet); in experiment [3]; on Melanocortin receptor 3) was “Not Active” throughout.

Consider `CN1C[C@H](CNC(=O)OCc2ccccc2)C[C@@H]2c3cccc4c3c(cn4C)C[C@H]21` [METERGOLINE], for which the IC50 entry (against Leukotriene C4 synthase; in experiment [1]; against Melanocortin receptor 4; in experiment [2] (platelet); in experiment [3]; at Melanocortin receptor 3) was “Not Active” in each case.

For `C1CCN2C[C@@H]3C[C@@H](CN4CCCC[C@@H]34)[C@H]2C1` [SPARTEINE], the IC50 result (against Leukotriene C4 synthase; in experiment [1]; against Melanocortin receptor 4; in experiment [2] (platelet); in experiment [3]; at Melanocortin receptor 3) was “Not Active” throughout.

Regarding `CO[C@@H]1[C@@H](OC)[C@H](C)[C@@](O)(CC(=O)O)O[C@H]1[C@H](C)[C@H]1O[C@@]2(CC[C@@](C)([C@H]3CC[C@@](C)([C@@H]4O[C@@H]([C@H]5O[C@](C)(O)[C@H](C)C[C@@H]5C)C[C@@H]4O[C@@H]4C[C@H](OC)[C@@H](OC)[C@H](C)O4)O3)O2)C[C@H](O)[C@H]1C.N` [MADURAMICIN], the IC50 result (at Leukotriene C4 synthase; in experiment [1]; against Melanocortin receptor 4; in experiment [2] (platelet); in experiment [3]; against Melanocortin receptor 3) was “Not Active” throughout.

The pIC50 is the negative decadic logarithm of the IC50, by convention in mol/L.

These data come from ChEMBL document CHEMBL1909046, “DrugMatrix in vitro pharmacology data”.
